According to patent EP0488224A2, “Fermentationproduct of a Verticimonosporium strain and feed additivs containing a linear peptide” (MITSUBISHI KASEI CORPORATION, priority 1990, dated 1992):
Read-outs that look alike come from different tables or passages of the source.

Assays:
[1] = test system: Caenorhabditis elegans; experiment: Anti-nematode activity (1): growth and motility of nematodes in suspension; assay type: cell-based; parameters: key: 5 scales, - ±, +, ++ and +++; 5 scales, - ±, +, ++ and +++; 5 scales, - ±, +, ++ and +++; 5 scales, - ±, +, ++ and +++; 5 scales, - ±, +, ++ and +++; details: 12.5 ppm, 20 °C, one week
Protocol: Anti-nematode activity of substance MBA090-18 was evaluated using Caenorhabditis elegans, a soil […] nematode.
Caenorhabditis elegans was suspended into sterilized water at the density of 20 - 30 heads/100 µl. To the suspension was added substance MBA090-18 at the concentration of 12.5 ppm. The mixture was incubated at 20 °C for one week while the growth and motility of nematodes being observed. […] The anti-nematode activity was evaluated and expressed according to the following 5 scales, - ±, +, ++ and +++.

[2] = Acute toxicity on oral administration; assay type: in vivo; details: five male mouse
Protocol: The acute toxicity of substance MBA090-18 was determined using five male mouse on oral administration.

[3] = value from a literature; cited from earlier work
[4] = test system: rumen fermentation; experiment: Effect on feed efficiency in vivo (rumen content of a goat given feed additive); details: 80 mg/day in feed, percentage to control (100)
Protocol: The effect of linear peptide compounds on the feed effeciency was evaluated in vivo using a ruminant animal.
A goat (a native species of Japan, 25 Kg) equipped with rumen fistula was used. As a feed additive, either of linear peptide compounds, MBA090-18 and gramicidin D, was administered to the animal. The rumen content was collected through the fistula and subjected to the assay in the same manner as described in the above Experiment 4 to obtain the total amount of VFAs, the production ratio of propionic acid to acetic acid (PA/AA) and the number of survival protozoas. In the table, values are shown as the percentage to the control values (100) obtained by keeping animal with the same feed ration to which neither of test compounds has been added.

[5] = test system: rumen bacterial solution; experiment: Effect on digestion of cellulose by rumen bacterial solution; parameters: species or system goat; details: 5 µg/ml, 37 °C, 3 days; 0 µg/ml control 72
Protocol: The effect of substance MBA090-18 on the digestion of cellulose in the rumen was evaluated.
A goat (a native species of Japan, 20 Kg) equipped with rumen fistula was again used. A preparation of rumen bacterial solution was prepared by collecting the rumen content through the fistula, followed by a prompt centrifugation at 3000 rpm for 10 min to remove feed debris and protozoa.
To the 10 ml of the bacterial solution was added 50 ml of a basal medium described in the above Experiment 3 except that 0.4 g of cellulose powder and 6 mg of vitamin mixture are supplemented. The flask is then sealed anaerobically under CO₂ gas and incubated at 37 °C for 3 days. When the incubation finished, the cultured broth was assayed about the digestion of cellulose.

Compound | Antinematode Activity growth [1] | Antinematode Activity mobility [1] | acute toxicity [2] [mg/kg] | other results
CN[C@H]1C[C@@H](N)[C@H](O)[C@@H](O[C@@H]2O[C@H](CO)[C@H](O)[C@@H]3OC4(O[C@H]23)O[C@H]([C@@H](N)CO)[C@H](O)[C@H](O)[C@H]4O)[C@@H]1O (some centres unmarked) [Hygromycin B] | ++ | ± | – | –
CC[C@@H](C(=O)[C@@H](C)[C@@H](O)[C@H](C)[C@@H]1O[C@@H]([C@@H](CC)C(=O)O)CC[C@@H]1C)[C@H]1O[C@]2(C=C[C@@H](O)[C@]3(CC[C@@](C)([C@H]4CC[C@](O)(CC)[C@H](C)O4)O3)O2)[C@H](C)C[C@@H]1C [Salinomysin] | – | – | 50 | –
Avermectin | +++ | +++ | – | acute toxicity [3]: 35 mg/kg
Gramicidin D | – | – | – | total VFAs (%) [4]: 103%; PA/AA (%) ([4]; propionic acid to acetic acid): 125%; Protozoa (%) ([4]; surviving protozoa): 86%
Monensin | – | – | 43.8 | Digestion Rate of Cellulose (%) [5]: 10%
